Series [1] has as its system 3T3-L1. The series is described as follows: Anti-adipogenic efficacy in mouse 3T3-L1 cells assessed as inhibition of TG level by Oil Red O staining based light microscopic analysis. It is filed as functional, cell-based.
The subject of series [2] is 3T3-L1. Put plainly: Anti-adipogenic efficacy in mouse 3T3-L1 cells assessed as reduction in FAS mRNA level by RT-qPCR analysis. In kind it is functional, cell-based. The settings on record: dose 0.1-10 µM. In general terms: In qPCR the cycle at which signal appears reflects the starting amount.
The subject of series [3] is 3T3-L1. The series is described as follows: Anti-adipogenic efficacy in mouse 3T3-L1 cells assessed as reduction in PPARgamma mRNA level by RT-qPCR analysis. In kind it is functional, cell-based. The settings on record: dose 0.1-10 µM.
The subject of series [4] is 3T3-L1. The series is described as follows: Anti-adipogenic efficacy in mouse 3T3-L1 cells assessed as reduction in C/EBPbeta mRNA level by RT-qPCR analysis. In kind it is functional, cell-based. The settings on record: dose 0.1-10 µM.
Series [5] has as its system 3T3-L1. The series is described as follows: Anti-adipogenic efficacy in mouse 3T3-L1 cells assessed as reduction in SCD-1 mRNA level by RT-qPCR analysis. It is filed as functional, cell-based. The settings on record: dose 0.1-10 µM.
Series [6] has as its system 3T3-L1. The series is described as follows: Anti-adipogenic efficacy in mouse 3T3-L1 cells assessed as inhibition of TG level at 1 uM by Oil Red O staining based light microscopy analysis. In kind it is functional, cell-based.
Series [7] deals with 3T3-L1. The series is described as follows: Anti-adipogenic efficacy in mouse 3T3-L1 cells assessed as reduction in PPARgamma protein level by Western blot analysis. It is filed as functional, cell-based. The settings on record: dose 0.1-10 µM. On the technique in general: A western blot detects proteins with antibodies after separation by electrophoresis.
In series [8] the test system is 3T3-L1. Put plainly: Anti-adipogenic efficacy in mouse 3T3-L1 cells assessed as reduction in FAS protein level by Western blot analysis. It is filed as functional, cell-based. The settings on record: dose 0.1-10 µM.
For series [9], the system named is 3T3-L1. The series is described as follows: Anti-adipogenic efficacy in mouse 3T3-L1 cells assessed as reduction in SCD-1 protein level by Western blot analysis. It is filed as functional, cell-based. The settings on record: dose 0.1-10 µM.
Series [10] concerns 3T3-L1. Put plainly: Anti-adipogenic efficacy in mouse 3T3-L1 cells assessed as reduction in C/EBPbeta protein level by Western blot analysis. It is filed as functional, cell-based. The settings on record: dose 0.1-10 µM.
Series [11] has as its system 3T3-L1. Put plainly: Anti-adipogenic efficacy in mouse 3T3-L1 cells assessed as increase in p-AMPK level at 0.1 to 10 uM by Western blot analysis. It is filed as functional, cell-based. The settings on record: dose 0.1-10 µM.
Series [12] relates to 3T3-L1. The series is described as follows: Cytotoxicity against mouse 3T3-L1 cells assessed as reduction in cell viability at 20 uM by CCK-8 assay. In kind it is toxicity, cell-based. The settings on record: 3t3-l1, 20 µM. (In general: Formazan colour is commonly taken as a measure of viable cells.)
Series [13] has as its system 3T3-L1. The series is described as follows: Anti-adipogenic efficacy in mouse 3T3-L1 cells assessed as increase in p-ACC level at 0.1 to 10 uM by Western blot analysis. In kind it is functional, cell-based. The settings on record: dose 0.1-10 µM.

The structures appear in SMILES notation. The source made the active and inactive calls. No cut-off for these calls is given here.

In general, EC50 refers to the concentration giving half of the maximal effect.

In the case of `C=C1C[C@]23O[C@@](O)([C@@]4(O)C[C@H](C)[C@H](OC(=O)c5ccccc5)[C@@H]4[C@H]1OC(=O)c1ccccc1)[C@]1(C)O[C@](C)(CC2=O)C[C@H]31`, in the series on 3T3-L1 [1], the half-maximal effective concentration (EC50) worked out at 0.36 µM.
Consider `CC1=C[C@@H]2C(=O)[C@]3(C=C(C)[C@H](OC(=O)C(C)C(C)C)[C@@]3(O)[C@@H]1O)[C@H](C)C[C@@H]1[C@H]2C1(C)C` (stereo not given in full), for which the Activity entry with 3T3-L1 [2], in the series with 3T3-L1 [3], with 3T3-L1 [4], in the series with 3T3-L1 [5], in the series on 3T3-L1 [7] and in the series on 3T3-L1 [8] was “Dose-Dependent Effect” each time. Besides, the Activity result with 3T3-L1 [9] is “Dose-Dependent Effect”; in the series with 3T3-L1 [10], “Dose-Dependent Effect”; with 3T3-L1 [12], “Non-Toxic”. In addition, in the series on 3T3-L1 [1], the 50% effective concentration (EC50) was 0.6 µM. Also, the outcome in the series with 3T3-L1 [6], in the series with 3T3-L1 [11] and with 3T3-L1 [13] was Active.
Regarding `C=C1C[C@]2(O)C(=O)C(C)(C)C[C@H]2C2=CC(=O)[C@]3(C[C@H](C)[C@H](OC(=O)c4ccccc4)[C@@H]3[C@H]1OC(=O)c1ccccc1)O2`, in the series with 3T3-L1 [1], the EC50 came out at 0.2 µM.

(Values after ChEMBL document CHEMBL5390286, “Discovery of Ingenane Diterpenoids from Euphorbia hylonoma as Antiadipogenic Agents” (J Nat Prod, 2023).)
